Test system: cabbage black rot bacterium (Xanthomonas campestris)
Test: Control test on cabbage black rot
Assay type: in vivo
Settings: 350 ppm, cabbage sprayed four times at intervals of 7 days
Text: Two days after the second spraying, the cabbage was inoculated with an aqueous suspension of cabbage black rot bacterium (Xanthomonas campestris) by the method of spraying. Two weeks after the final spraying, the cabbage was investigated to calculated the degree of disease occurrence according to the following criterion. In the untreated plot, the degree of disease occurrence was 44.7.
Degree of disease occurrence=Σ(Number of hills at every degree of occurrence)×100÷(Number of hills investigated×3)
From the degree of disease occurrence, controlling degree was calculated according to the following equation. […] [formula]

Oc1cccc2cccnc12.[Cu] [8-Hydroxyquinoline-copper, 8-Hydroxyquinoline copper]
Controlling degreee (%): 59%
Degree of disease occurrence: 18.2
Percentage of diseased hills (%): 54.5%

From patent US20020013350A1 (priority 1998, published 2002)
